For data set [1], the system named is HCT 116 MTAP wild-type cells. Kind of data set: Human colon cancer HCT116 cell proliferation inhibition test (MTAP wild-type cells, CellTiter-Glo, 6 days). It is filed as cell-based. The conditions noted are these: HCT-116, 144 h. Here is the method:
(§1) • 1. HCT 116 MTAP knockout and MTAP wild-type cells were plated in 96-well flat bottom 5 plates, and cultured overnight with McCoy's 5A medium containing […]+1% penicillin-streptomycin at 37° C. and 5% CO2. • 2. On the next day, the compound was dissolved with DMSO, diluted with DMSO and medium successively and transferred to the cell plate. The final concentration of the compound was 10 μM, the compound was diluted 4 times, with 9 concentration gradients, and DMSO control was added. • 3. Cells that have not been treated with the compound were removed. CellTiter-Glo Luminescent Cell Viability Assay (Promega) was used to detect cell viability, the operation was performed with reference to the package insert of the kit, and then the cell plate was placed on EnVision Multilabel Reader to detect the cold light signal. • 4. Meanwhile, the cell plate treated with the compound was cultured at 37° C. and 5% CO2 for 6 consecutive days. • 5. Then, CellTiter-Glo was also used to detect cell viability. • 6. Finally, the four-parameter dose-response curve module of GraphPad Prism v 9.2.0 software was used to plot the dose-response curve and calculate the IC50 for proliferation inhibition (unit: nM).

The nature of data set [2]: Pharmacokinetic assay in mice, single oral administration. Format: in vivo. Conditions: male, mouse, ICR mice, 10 mg/kg, plasma. How it is done:
The purpose of this trial is to study the pharmacokinetic behavior of some compounds of the present invention, and the administration method is: Single oral administration (PO) to ICR mice:
ICR mice male N=3 original source: Shanghai Sippr-Bk Lab Animal Co., Ltd.
The compounds were weighed and dissolved in 20% PG+10% Solutol HS15+70% pH 3 citrate buffer, respectively, shaken well and sonicated to prepare colorless clear solutions or suspensions. Nine mice were administered orally at a dose of 10 mg/kg after an overnight fast.
About 90 μL of blood was collected via the submandibular vein per time point, heparin sodium anticoagulant was added, the sample was placed on ice after collection, and plasma was centrifuged within 1 hour (centrifugation conditions: 8,000 rpm, 6 minutes, 2-8° C.). The blood collection time points were 0, 0.25, 0.5, 1, 2, 4, 6, 8 and 24 h. The samples were stored in a refrigerator at −20° C.
The plasma sample was 40 μL, 160 μL of ice-cold acetonitrile containing internal standard was added, vortexed for 3 minutes, and centrifuged at 11,000 rpm for 5 minutes. 100 μL of the supernatant was taken and added to 100 μL of water, 5 μL of the sample was taken and injected into LC/MS/MS for analysis (see the table below for the results).
PK Results for Single Oral Administration (PO) of 10 mg/kg of Compounds to Mice

Data set [3] deals with HCT 116 MTAP knockout cells. Briefly: Human colon cancer HCT116 cell proliferation inhibition test (MTAP knockout cells, CellTiter-Glo, 6 days). Format: cell-based. How it is done: as §1
Background: Cellular ATP, detected with luciferase, serves as a proxy for viable cell number.

The nature of data set [4]: Liver microsomal stability experiment. Format: in vitro ADME. Conditions: pH 7.4; human liver microsomes, NADPH, 37° C., 0-45 min; read-out: Human Liver Microsome Stability Half-Life T1/2. Here is the method: Buffer solution A: 1.0 L of 0.1 M potassium dihydrogen phosphate buffer solution (containing 1.0 mM EDTA);
Buffer solution B: 1.0 L of 0.1 M dipotassium phosphate buffer solution (containing 1.0 mM EDTA);
Buffer solution C: Buffer solution A was added to 700 mL of buffer solution B. The addition was stopped when pH reached 7.4.
The selected compounds of the examples and reference standards were dissolved in DMSO to prepare a stock solution of 10 mM.
• 500 μM solution: 10 μL of 10 mM stock solution was added to 190 μL of ACN; • 1.5 μM dosing solution (dissolved in liver microsome solution, human liver microsomes were purchased from Xenotech): 18.75 μL of 20 mg/mL liver microsomes was added to 479.75 μL of buffer solution C, then 1.5 μL of 500 μM solution was added and mixed well with gentle shaking.
NADPH was weighted, then an appropriate amount of buffer solution C was added to prepare a 6 mM of NADPH solution.
• 1. 30 μL of 1.5 μM dosing solution was added to the wells set to different time points (0 min, 5 min, 15 min, 30 min and 45 min) on a 96-well plate. 2 replicates were made. • 2. Preparation of the 0-min sample: 135 μL of ACN (containing internal standard) was first added to the 0-min well, and 15 μL of 6 mM NADPH solution was added. • 3. A 96-well plate containing 1.5 μM of dosing solution and NADPH solution were pre-warmed in a 37° C. water bath for 5 minutes. • 4. Pre-warmed 15 μL of 6 mM NADPH solution was added to the wells set to 5 min, 15 min, 30 min and 45 min, the reaction was started and the timing was started. • 5. […] The solution was vortexed for 10 minutes, and the sample was centrifuged on a centrifuge at 5594×g for 15 minutes. • 6. 50 μL of supernatant was taken from the centrifuged sample, transferred to a 96-well sample plate that has been added with 50 μL of water, mixed, and finally sent to LC-MS/MS for analysis. The half-life was calculated based on the test results.

Like-named read-outs stand apart in the source and are kept apart here.

In the case of `Cn1ncc(-c2cc(C#N)c3c(=O)[nH]nc(CN)c3c2)c1-c1c(F)cc2ccccc2c1C#N` [Example 1, 1-(aminomethyl)-7-(5-(1-cyano-3-fluoronaphthalen-2-yl)-1-methyl-1H-pyrazol-4-yl)-4-oxo-3,4-dihydrophthalazine-5-carbonitrile], the IC50 (as a rule, the concentration needed to halve the response being measured) in data set [1] was found to be 2.36 µM. For the same compound, in data set [2], the AUC(0-t) (as a rule, the area under the concentration-time curve up to a stated or last time point) is 2.53 µg·h/mL; the peak level (Cmax) was 1.75 µg/mL; the half-life is 1.2 h. In data set [3], this compound returned an IC50 of 0.029 µM. For the same compound, the half-life at 1 µM in data set [4] is 3.37 h.

`Cn1ncc(-c2ccc3c(=O)[nH]nc(CN)c3c2)c1-c1c(F)c(Cl)cc(OC2CC2)c1C#N` [MRTX-1979, reference compound] showed an IC50 in data set [1] of 1.61 µM. Moreover, in data set [2], the exposure AUC(0-t) was 0.973 µg·h/mL; the Cmax (as a rule, the highest concentration seen after dosing) amounted to 0.266 µg/mL; the half-life is 1.3 h. In data set [3] (Homo sapiens, HCT-116, 144 h), this compound registered a 50% inhibitory concentration (IC50) of 0.053 µM. Besides, in data set [4], the half-life at 1 µM came to 0.333 h.

As for `Cn1ncc(-c2ccc3c(=O)[nH]nc(CN)c3c2)c1-c1c(F)c(Cl)cc(N2CCCC2)c1C#N` [Example 28, 2-(4-(4-(aminomethyl)-1-oxo-1,2-dihydrophthalazin-6-yl)-1-methyl-1H-pyrazol-5-yl)-4-chloro-3-fluoro-6-(pyrrolidin-1-yl)benzonitrile], inhibition in data set [1] was half-maximal at 0.761 µM (IC50). In addition, in data set [2], the AUC(0-t) was found to be 2.98 µg·h/mL, the highest concentration (Cmax) worked out at 0.81 µg/mL and the half-life was 5 h. The same compound registered an IC50 in data set [3] (Homo sapiens, HCT-116, 144 h) of 0.017 µM. The half-life at 1 µM in data set [4] is 0.45 h.

The values above are taken from US20240408088A1, “PYRAZOLE DERIVATIVE, AND PREPARATION METHOD THEREFOR AND USE THEREOF IN MEDICINE” (Abbisko Therapeutics Co., Ltd., priority 2021, published 2024).
